# Measured values: patent US20240050434A1, “HORMAD1 THERAPEUTICS” (Royal Cancer Hospital, priority 2020, published 2024)
# Entries after “also recorded” stand apart in the source; their conditions may differ.
# Columns and labels:
# [1] = test system: organoids from spontaneous tumours of WB1P mouse with or without human HORMAD1; experiment: Organoids from genetically engineered mouse model tumours, viability by cell titre glo; type: cell-based; details: increasing doses, 14 days post drugging
# Source text: In a further experiment, HORMAD1 was expressed within a genetically engineered mouse model of triple-negative breast cancer (original model published in Annunziato et al., 2019). Human HORMAD1 was expressed in the WB1P mouse (Annunziato et al., 2019) using a transgene and derived organoids from spontaneous tumours.
# Genetically engineered mouse models were generated by conditionally deleting BRCA1 and P53 in breast epithelia (Liu et al., 2007). Human HORMAD1 fused to luciferase was conditionally expressed under a breast-specific promoter. Spontaneous tumours from these mice were isolated and grown as organoids, treated with increasing doses of BUB1 inhibitor, BAY-1816032. 14 days post drugging, cell viability was estimated using cell titre glo reagent. Surviving fractions were calculated (normalised to vehicle treated cells). Data from 3 replicas, analysed using 2-way ANOVA.
# [2] = test system: MDA-157, MDA-468, MDA436 TNBC cell-lines and MCF10A, MTSV1 non-transformed breast cell-lines; experiment: SRB viability in HORMAD1-positive TNBC cell-lines versus non-transformed breast cell-lines; type: cell-based; details: increasing doses, 10-14 days post drugging
# Description: To confirm that endogenous HORMAD1 expression in cancer cells (as opposed to transgene-driven HORMAD1 expression) also causes BUB1 inhibitor sensitivity, increasing doses of BUB1 inhibitor was added to 3 HORMAD1-positive triple-negative breast cancer cell-lines (TNBC) and 2 HORMAD1-negative non-transformed breast cell-lines.
# Three HORMAD1 positive TNBC cell-lines (MDA-157, MDA-468, MDA436) and two non-transformed breast cell-lines (MCF10A and MTSV1) were treated with increasing doses of BUB1 inhibitor BAY-1816032. 10-14 days post drugging, cell viability was estimated by staining cells with SRB and measuring absorbance. Surviving fractions were calculated (normalised to vehicle treated cells). Data is from 3 replicas, analysed using 2-way ANOVA.
# [3] = test system: RPE1 cells expressing a doxycycline-inducible HORMAD1 expression construct; experiment: Mitotic slippage by time-lapse microscopy in nocodazole-arrested RPE1 cells; type: cell-based; details: 300 nM nocodazole arrest, then 100-200 nM reversine, 50 nM BOS172722 or AZD1152-HQPA
# Description: A. Diagram of experimental outline. Cells were exposed to doxycycline for 3 days, arrested in mitosis using 300 nM nocodazole or 100 nM Paclitaxel. Mitotic cells were filmed every 4 minutes for 1200 minutes, and the time cells remained arrested in mitosis before exiting via mitotic slippage was assessed. […] RPE1 cells expressing a doxycycline-inducible HORMAD1 cDNA expression construct were exposed to doxycycline or vehicle (H2O) for three days at which point cells were exposed to 300 nM nocodazole and filmed every 4 minutes using time-lapse microscopy. The time individual cells remained arrested in mitosis was quantified and presented as the % of cells arrested in mitosis at each time point. Data reflects a total of 125 cells from 3 biological repeats and was analysed using Mantel-Cox test. C. […] The time individual cells remained arrested in mitosis was quantified and presented as the % of cells arrested in mitosis at each time point. Data reflects a total of 125 cells from 3 biological repeats and was analysed using Mantel-Cox test. […] H1299 cells expressing two individual, doxycycline-inducible, shRNA particles targeting HORMAD1 as well as a non-targeting control were grown for three days in the presence of doxycycline at which point cell lysates were generated and analysed by SDS-PAGE and western blotting using anti-HORMAD1 and anti-β-ACTIN antibodies. […] The time individual cells remained arrested in mitosis was quantified and presented as the % of cells arrested in mitosis at each time point. Data reflects a total of 90 cells from 3 biological repeats and was analysed using Mantel-Cox test with Bonferonni correction. […] Mitotic cells were filmed every 2 minutes for 400 minutes, and the time taken before cells exited mitosis via mitotic slippage was assessed. […] The time individual cells remained arrested in mitosis was quantified and presented as the % of cells arrested in mitosis at each time point. […] The time individual cells remained arrested in mitosis was quantified and presented as the % of cells arrested in mitosis at each time point. […]
# [4] = test system: SUM159 cells expressing a doxycycline-inducible HORMAD1 construct; experiment: Clonogenic survival assay (SRB) in SUM159 cells with doxycycline-inducible HORMAD1; type: cell-based; details: increasing doses, 10-14 days, normalised to vehicle
# Description: Cell confluence was analysed every 6 hours for 10 days, using incucyte software. Data are from 3 biological replicates and analysed using a two-way ANOVA. […] RPE1 cells expressing a doxycycline-inducible HORMAD1 expression construct were exposed to doxycycline or vehicle (H2O) and were exposed to 20 nM of the Aurora B inhibitor, AZD1152-HQPA. Cell confluence was analysed every 6 hours for 10 days, using incucyte software. Data are from 3 biological replicates and analysed using a two-way ANOVA. […] 7-10 days post drugging, cells were fixed, stained with SRB, and colonies were counted using Cell Profiler. […] 10 days post drugging, cells were fixed, stained with SRB, and colonies were counted using Cell Profiler. […] 7-10 days post drugging, cells were fixed, stained with SRB, and colonies were counted using Cell Profiler. […] 10 days post drugging, cells were fixed, stained with SRB, and colonies were counted using Cell Profiler.
# RPE1 and SUM159 cells expressing a doxycycline-inducible HORMAD1 construct were treated with doxycycline or vehicle. […] Surviving fractions were calculated (normalised to vehicle treated cells). […] Data from 3 replicas was analysed using 2-way ANOVA. […] Surviving fractions were calculated (normalised to vehicle treated cells). Data from 4 replicas was analysed using 2-way ANOVA. […]
# AURORA B kinase = AURORA B kinase (Homo sapiens, UniProt Q96GD4); details: competitive ATP inhibition; Mortlock et al., 2007; cited from earlier work
# Chain of AURORA B kinase (Q96GD4 whole entry): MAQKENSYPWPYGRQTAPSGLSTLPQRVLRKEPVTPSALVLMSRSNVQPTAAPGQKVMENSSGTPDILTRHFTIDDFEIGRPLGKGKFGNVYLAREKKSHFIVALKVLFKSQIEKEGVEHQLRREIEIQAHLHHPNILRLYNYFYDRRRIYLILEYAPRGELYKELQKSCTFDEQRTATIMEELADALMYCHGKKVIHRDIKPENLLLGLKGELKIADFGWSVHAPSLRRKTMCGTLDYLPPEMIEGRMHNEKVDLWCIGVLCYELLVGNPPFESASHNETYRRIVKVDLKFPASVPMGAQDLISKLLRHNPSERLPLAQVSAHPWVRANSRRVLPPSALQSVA
compound,measurement,setting,value
COc1cnccc1Nc1nc(-c2nn(Cc3c(F)cc(OCCO)cc3F)c3ccccc23)ncc1OC [BAY-1816032],growth inhibition of HORMAD1-expressing versus HORMAD1-negative mouse tumour organoids,[1],more effectively inhibited
same,"surviving fraction, HORMAD1-positive TNBC cell-lines compared with HORMAD1-negative non-transformed cell-lines",[2],significant differences
CCN(CCO)CCCOc1ccc2c(Nc3cc(CC(=O)Nc4cccc(F)c4)[nH]n3)ncnc2c1 [AZD1152-HQPA],mitotic slippage / mitotic exit in HORMAD1 induced RPE1 cells,[3],Very similar results
same,clonogenic survival / sensitivity of HORMAD1 expressing versus HORMAD1-negative SUM159 cells,[4],reduced clonogenic survival; also recorded: increased Aurora B inhibitor sensitivity
same,inhibition of AURORA B kinase activity,AURORA B kinase,potently inhibits
